Laboratory results taken from PubChem BioAssay (NCI).
Where “and” joins values, the source holds several entries; their conditions need not be identical. Identical values can stand only once.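 Results reflect a 48-hour exposure of cells in 96-well plates to compound at five concentrations. At the GI50, growth is halved. TGI is the concentration that stops growth completely.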

What was measured:
Test in all cases: NCI tumour cell line growth inhibition, 48 h
SN12C renal = system: SN12C renal
NCI-H522 lung = system: NCI-H522 lung
SNB-75 CNS = system: SNB-75 CNS
MDA-MB-435 = system: MDA-MB-435
HL-60(TB) leukemia = system: HL-60(TB) leukemia
SK-OV-3 ovarian = system: SK-OV-3 ovarian
COLO 205 colon = system: COLO 205 colon
SNB-19 CNS = system: SNB-19 CNS
T-47D breast = system: T-47D breast
KM12 colon = system: KM12 colon

Row | Structure (SMILES) | TGI (SN12C renal) [µM] | TGI (NCI-H522 lung) | TGI (SNB-75 CNS) | TGI (MDA-MB-435) [µM] | TGI (HL-60(TB) leukemia) [µM] | TGI (SK-OV-3 ovarian) [µM] | TGI (COLO 205 colon) | TGI (SNB-19 CNS) [µM] | TGI (T-47D breast) [µM] | TGI (KM12 colon) [µM] | GI50 (SN12C renal) [µM] | GI50 (NCI-H522 lung) [µM] | GI50 (SNB-75 CNS) [µM] | GI50 (KM12 colon) [µM] | GI50 (SNB-19 CNS) [µM]
1 | O=C(/C=C/c1ccc2c(c1)OCO2)c1ccc(O)cc1 | 29.1 | 6.72 µM | 75.7 µM | 34.1 | 28.7 | 35.1 | 31.3 µM | 30.5 |  |  |  |  |  |  | 
2 | O=c1[nH]c(=S)[nH]c2c1C(c1ccc([N+](=O)[O-])cc1)c1c([nH]c(=S)[nH]c1=O)O2 | > 100 | > 100 µM |  | > 100 | > 100 |  | > 100 µM | > 100 | > 100 | > 100 |  |  |  |  | 
3 | COc1ccc2cc1Oc1ccc(cc1)C[C@H]1c3cc(c(OC)cc3CCN1C)Oc1c(O)c(OC)cc3c1[C@H](C2)N(C)CC3 | 88.8 | 55.7 µM | 52 µM |  | 48.2 | 44.5 | 39.4 µM | 134 |  | 42.6 |  |  |  |  | 
4 | Nc1ncnc2c1[nH]c(=O)n2-c1ccccc1 | > 100 |  |  | > 100 | > 100 | > 100 | > 100 µM | > 100 |  |  |  |  |  |  | 
5 | CC(=O)Nn1c(=S)[nH]c2ccccc21 | > 100 | > 100 µM |  | > 100 | > 100 | > 100 | > 100 µM | > 100 | > 100 | > 100 |  |  |  |  | 
6 | O=C(c1ccccn1)C1(N2CCCCC2)CCCCC1 | > 100 | 37 µM |  | > 100 | > 100 | > 100 | > 100 µM | > 100 | > 100 | > 100 |  |  |  |  | 
7 | COC(=O)[C@@H](O)[C@](O)(CCC(C)C)C(=O)O[C@@H]1C(OC)=C[C@]23CCCN2CCc2cc4c(cc2[C@H]13)OCO4 | 10.3 | 2.99 µM | 14.1 µM |  | 2.96 | 8.12 | 2.99 µM | 2.67 |  | 13 |  |  |  |  | 
8 | C=CC1(CC/C(=C\[N+](=O)[O-])c2ccc(OC)c(OC)c2)OCC(C)(C)CO1 | 47.6 | 37.8 µM |  | 56.3 | 34.1 | 60.4 | 43.4 µM | 35.7 | 33.2 | 47.2 |  |  |  |  | 
9 | O=C1CCCCC1CN1CCCCC1 (stereo not drawn) | > 100 | 4.42 µM | > 100 µM | > 100 | > 100 | > 100 | > 100 µM | > 100 |  | > 100 |  |  |  |  | 
10 | CC1(C)O[C@H]2OC(CO[Si](C)(C)C(C)(C)C)C(N=[N+]=[N-])[C@H]2O1 (stereo partly drawn) | 36.2 |  | 59.3 µM | 66.4 | 23.1 | 28.3 |  | 36.1 |  | 34.2 |  |  |  |  | 
11 | CCOC(=O)Nc1sc2c(c1C#N)CCCC2 | > 100 | > 100 µM |  | > 100 | > 100 | > 100 | > 100 µM | > 100 |  | > 100 |  |  |  |  | 
12 | Cc1ccccc1C(=N)c1ccccc1Cc1cccc2ccccc12 | 39.5 | 34.6 µM |  | 52.9 | 42.2 | 98.9 | 76.9 µM | > 100 | 38.4 | 41.9 |  |  |  |  | 
13 | N[C@@H](CCC(=O)NCP(=O)(O)O)C(=O)O | > 100 | > 100 µM |  | > 100 | > 100 |  | > 100 µM | > 100 | > 100 | > 100 |  |  |  |  | 
14 | CC1CN(C)c2ccccc2N=C1NN (stereo not drawn) | > 100 | > 100 µM |  | > 100 | > 100 | > 100 | > 100 µM | > 100 |  | > 100 |  |  |  |  | 
15 | O=C(Cc1ccc(O)c(O)c1)NCc1c[nH]c2ccccc12 |  | > 100 µM | > 100 µM |  | 85.7 | > 100 | > 100 µM | > 100 | > 100 | > 100 |  |  |  |  | 
16 | CC(=O)N1C(C(=O)NC2CCCCC2)CSC1c1ccccc1 (stereo not drawn) | > 100 | > 100 µM | > 100 µM | > 100 | > 100 | > 100 |  | > 100 |  | > 100 |  |  |  |  | 
17 | COc1ccc2[nH]cc(/C=C(/C)c3ccncc3)c2c1 | > 100 | 21.9 µM and 7.16 µM | 29.5 µM and 7.19 µM |  | 3.93 | 35.6 | 16.4 µM and 13.9 µM | > 100 |  | > 100 | 7.58 | 3.99 | 4.93 | 0.796 | 15.5
18 | COP(=O)(OC)C1=c2c(C)noc2=C2C=COC2C1=O (stereo not drawn) | > 100 | > 100 µM | > 100 µM | > 100 | > 100 | > 100 | > 100 µM | > 100 |  | > 100 |  |  |  |  | 
19 | O=S(=O)(c1ccccc1)c1cccc2c1NCCC2 | > 100 |  | > 100 µM | > 100 | 67.4 | > 10 | > 10 µM | > 100 |  | > 100 |  |  |  |  | 
20 | Oc1ccc(Cc2cc(Cc3ccc(O)cc3)cc(Cc3ccc(O)cc3)c2)cc1 | > 50 | > 50 µM | > 50 µM | > 50 | > 50 | > 50 |  | > 50 |  | > 50 |  |  |  |  | 
